Source: US7465724B2, “Bis-pyrrolo[2,1-c][1,4]benzodiazepine-anthraquinone conjugates and a process for the preparation thereof” (Council of Scientific and Industrial Research, priority 2006, dated 2008)

Experiments:
Assay type in all cases: cell-based, human
Settings in all cases: 48 h continuous drug exposure; dose to inhibit cell growth by 50% vs untreated cell controls
Colo205 = test: In vitro cytotoxicity, SRB assay, Colo205
Procedure: (§1) Cytotoxicity: Compounds Va-c have been evaluated for the primary anticancer activity in selected human cancer cell lines. For each compound, dose response curves against each cell line were measured at a minimum of five concentrations at 10 fold dilutions. A protocol of 48 h continuous drug exposure was used and a sulforhodamine B (SRB) protein assay was used to estimate cell viability or growth. The concentration causing 50% cell growth inhibition compared with the control has been calculated.

SiHa = test: In vitro cytotoxicity, SRB assay, SiHa
Procedure: as §1

MCF7 = test: In vitro cytotoxicity, SRB assay, MCF7
Procedure: as §1

ZR-75-1 = test: In vitro cytotoxicity, SRB assay, ZR-75-1
Procedure: as §1

A2780 = test: In vitro cytotoxicity, SRB assay, A2780
Procedure: as §1

Hop62 = test: In vitro cytotoxicity, SRB assay, Hop62
Procedure: as §1

PC3 = test: In vitro cytotoxicity, SRB assay, PC3
Procedure: as §1

SMILES | IC50 (Colo205) | IC50 (SiHa) | IC50 (MCF7) | IC50 (ZR-75-1) | IC50 (A2780) | IC50 (Hop62) | IC50 (PC3)
COc1cc2c(cc1OCCCOc1ccc(OCCCOc3cc4c(cc3OC)C(=O)N3CCC[C@H]3C=N4)c3c1C(=O)c1ccccc1C3=O)N=C[C@@H]1CCCN1C2=O [Va, 1,4-Bis-{3-[7-methoxy-8-oxy-(11aS)-1,2,3,11atetrahydro-5H-pyrrolo [2,1-c][1,4]-benzodiazepin-5-one]propyloxy}anthracene-9,10-dione] | < 1 µM | 800 nM | 600 nM | 500 nM | 600 nM | < 1000 nM | 600 nM
COc1cc2c(cc1OCCCCOc1ccc(OCCCCOc3cc4c(cc3OC)C(=O)N3CCC[C@H]3C=N4)c3c1C(=O)c1ccccc1C3=O)N=C[C@@H]1CCCN1C2=O [Vb, 1,4-Bis-{4-[7-methoxy-8-oxy-(11aS)-1,2,3,11atetrahydro-5H-pyrrolo [2,1-c][1,4]benzodiazepin-5-one]butyloxy}anthracene-9,10-dione] | 10 µM | 9000 nM | 9000 nM | – | 10000 nM | – | 7000 nM
COc1cc2c(cc1OCCCCCOc1ccc(OCCCCCOc3cc4c(cc3OC)C(=O)N3CCC[C@H]3C=N4)c3c1C(=O)c1ccccc1C3=O)N=C[C@@H]1CCCN1C2=O [Vc, 1,4-Bis-{5-[7-methoxy-8-oxy-(11aS)-1,2,3,11atetrahydro-5H-pyrrolo [2,1-c][1,4]benzodiazepin-5-one]pentyloxy}anthracene-9,10-dione] | < 1 µM | 800 nM | 1200 nM | 1500 nM | 600 nM | 1400 nM | 1000 nM
